pIC50: −log10 of the molar value.
Assays:
WAVE2 = molecular target: T1, WAVE2 (Homo sapiens, UniProt Q9Y6W5); assay: plasma membrane translocation assay, WAVE2-GFP; type: cell-based
T1 construct: expressed in transfected cells; host or cells: SUM159
Method: To begin characterizing cellular activity of PITs, a PH domain translocation assay was performed, measuring PIP3-induced association of GFP-fused PH domains with the plasma membrane. This method provides useful means for monitoring status of the PH domain/PIP3 binding in the intact cells. Varnai P et al. (1999) J Biol Chem 274:10983-9. Several PH-domain-containing proteins, which are known to bind PIP3 specifically and efficiently, were examined. […] Oikawa T et al. (2004) Nat Cell Biol 6:420-6.

cells [1] = assay: subG1 DNA content; type: cell-based; settings: P<0.01
Excerpt: Since PI3K/PIP3/Akt signaling plays a critical role in the inhibition of apoptosis (Datta S R et al. (1999) Genes Dev 13:2905-27), the possibility that PITs induce apoptosis was examined. […] Proapoptotic Bcl-2 family members Bax and Bak are important mediators of apoptosis. Wei M C et al. (2001) Science 292:727-30. […] Non-apoptotic mechanisms of cell death may also play some additional, albeit less important, role in PIT-induced killing, as some cell death was still observed in Bax/Bak-deficient cells and in the presence of zVAD.fmk.

PDK1 PH domain = molecular target: T2, PDK1 PH domain (Homo sapiens, UniProt O15530); assay: FP assay, PIP3 binding to PDK1 PH domain; settings: 15 nM TMR-PIP3, 100 nM PDK1 PH domain, 0-200 μM
T2 construct: 100 nM 441-551 a.a. region of human PDK1; made in house; host or cells: E. coli BL21(DE3)
Method: FIG. 4 is a graph depicting concentration-dependent competitive inhibition of PIP3-PH domain interaction by PIT-1 and PIT-2. 15 nM TMR-conjugated PIP3 were incubated with 100 nM PDK1 PH domain in the presence or absence of the indicated concentrations of PITs (0-200 μM) for 30 min, followed by FP measurement.
In order to identify compounds that disrupt the interaction between PIP3 and PH domains, a high-throughput fluorescence polarization (FP)-binding assay was developed using recombinant 1-123 amino acid N-terminal fragment of human Akt1 (also referred to herein simply as Akt), encompassing the PH domain (PH123 protein), and fluorescent NBD-labeled PIP3 molecule. The amino acid sequence of human Akt1 is publicly available as, for example, GenBank Accession No. NP_001014432.1 (SEQ ID NO:1), and the corresponding DNA sequence is publicly available as, for example, GenBank Accession No. NM_001014432. Briefly, 5 μM recombinant GST fusion proteins containing 1-123 a.a. N-terminal fragment of human Akt1 (PH 123) or 100 nM 441-551 a.a. region of human PDK1 were incubated with 15 nM TMR-labeled PIP3, PIP2, or PIP5 in buffer containing 50 mM Tris-HCl (pH 7.5), 150 mM NaCl, and 5 mM b-ME for 15 min at room temperature in the dark. FP values were determined using Wallac Victor 3 plate reader. […]

U87MG cells = assay: U87MG cell viability, ATP assay; type: cell-based, human; settings: for viability of U87MG cells: 12.5-100 μM, 48 hr, ATP assay
Method: U87MG cells were incubated with PITs (12.5-100 μM) for 48 hr. Cell viability was determined using ATP assay.
Based on the critical role of PIP3-dependent Akt signaling in the regulation of cell survival, the effect of PIT-1 on the cancer cell viability was tested. Cancer cells were seeded into 96-well plates (white plates for ATP assay; black plates for fluorescent assay; clear plates for MTS assay) at the density of 5-10×10^3 cells per well in 100 μl of the appropriate media. Compounds were added at a series of concentrations and incubated for different times. For the ATP assay, a luminescence-based commercial kit (CellTiter-Glo, Promega, Madison, Wis.) was used. Thirty microliters of cell lysis/ATP detection reagent was added to each well, mixed for 10 min at room temperature, and the luminescence was measured using a Wallac Victor 3 plate reader (Perkin-Elmer, Wellesley, Mass.). For the MTS assay, a CellTiter 96 AQueous Non-Radioactive Cell Proliferation Assay Kit (Promega, Madison, Wis., USA) was used. Twenty microliters of the combined MTS/PMS solution was added into each well, incubated for 4 hr at 37° C., and the absorbance at 490 nm was measured using a Wallac Victor 3 plate reader. For the Sytox cell death assay, measuring loss of plasma membrane integrity, cells were incubated with 1 μM Sytox Green reagent (Molecular Probes, Eugene, Oreg.) for 30 min at 37° C. and the fluorescence intensity was measured using Wallac Victor 3 plate reader with excitation at 485 nm and emission at 545 nm. Next, 5 μl of 20% (v/v) Triton X-100 solution was added to each well and incubated for 1 hr at 37° C., and the signal was measured again. The ratio of values (percentage of dead cells in each well) before and after Triton X-100 treatment was calculated and normalized to the relevant controls not subjected to the cytotoxic stimuli. IC50 values were determined using Origin6 software (MicroCal, LLC, Northampton, Mass.).

[2] = molecular target: T3, Akt PH domain (PH123, 1-123 a.a. N-terminal fragment of human Akt1) (Homo sapiens, UniProt P31749); assay: fluorescence polarization (FP) PIP3/Akt PH domain binding assay; settings: 15 nM TMR-PIP3, 5 μM GST-PH domain of Akt, 30 min, read-out: IC50, disruption of PIP3/Akt PH domain binding
T3 construct: recombinant GST fusion proteins containing 1-123 a.a; N-terminal fragment of human Akt1 (PH 123); made in house; host or cells: E. coli BL21(DE3)
Method: 15 nM TMR-conjugated PIP3 were incubated with 5 μM GST-PH domain of Akt in the presence or absence of the indicated concentrations of PITs (0-200 μM) for 30 min, followed by FP measurement.
In order to identify compounds that disrupt the interaction between PIP3 and PH domains, a high-throughput fluorescence polarization (FP)-binding assay was developed using recombinant 1-123 amino acid N-terminal fragment of human Akt1 (also referred to herein simply as Akt), encompassing the PH domain (PH123 protein), and fluorescent NBD-labeled PIP3 molecule. […] Briefly, 5 μM recombinant GST fusion proteins containing 1-123 a.a. N-terminal fragment of human Akt1 (PH 123) or 100 nM 441-551 a.a. region of human PDK1 were incubated with 15 nM TMR-labeled PIP3, PIP2, or PIP5 in buffer containing 50 mM Tris-HCl (pH 7.5), 150 mM NaCl, and 5 mM b-ME for 15 min at room temperature in the dark. FP values were determined using Wallac Victor 3 plate reader. […] Incubations were carried out for 1 hr. For secondary assays, PIT compounds were added at various concentrations (6.25, 12.5, 25, 50, 100, 150 and 200 μM), followed by a 30 min incubation. The inhibition rates were calculated as: inhibition rate=[1−(compound-treated group/control group)]×100%, and IC50 value was determined using Origin6 software (MicroCal, LLC, Northampton, Mass.).

cells [3] = assay: cell death under glucose/glutamine deprivation; type: cell-based
Excerpt: Elstrom R L et al. (2004) Cancer Res 64:3892-9.

T3 sequence (P31749 1-123): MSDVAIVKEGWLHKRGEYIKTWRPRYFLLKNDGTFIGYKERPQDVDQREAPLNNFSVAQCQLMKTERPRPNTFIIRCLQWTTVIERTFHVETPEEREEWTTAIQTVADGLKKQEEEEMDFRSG
T1 sequence (Q9Y6W5 whole entry, species assumed): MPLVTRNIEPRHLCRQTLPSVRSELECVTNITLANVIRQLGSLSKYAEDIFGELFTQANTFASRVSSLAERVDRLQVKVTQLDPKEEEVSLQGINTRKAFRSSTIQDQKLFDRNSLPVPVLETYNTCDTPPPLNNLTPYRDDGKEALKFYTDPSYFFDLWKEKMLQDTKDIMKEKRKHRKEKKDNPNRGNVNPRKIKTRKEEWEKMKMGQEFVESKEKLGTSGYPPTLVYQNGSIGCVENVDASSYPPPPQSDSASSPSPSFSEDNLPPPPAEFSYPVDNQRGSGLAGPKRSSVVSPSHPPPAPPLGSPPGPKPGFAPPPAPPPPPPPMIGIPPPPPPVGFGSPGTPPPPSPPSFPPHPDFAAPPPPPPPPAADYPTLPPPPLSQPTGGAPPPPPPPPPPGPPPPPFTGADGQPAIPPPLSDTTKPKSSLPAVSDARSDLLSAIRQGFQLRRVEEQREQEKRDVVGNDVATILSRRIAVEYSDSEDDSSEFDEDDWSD
T2 sequence (O15530 441-551): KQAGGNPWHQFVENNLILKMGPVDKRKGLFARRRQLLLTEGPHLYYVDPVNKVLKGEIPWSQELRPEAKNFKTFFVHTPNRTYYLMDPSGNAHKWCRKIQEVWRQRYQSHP

| Compound | plasma membrane translocation of WAVE2 (WAVE2) | subG1 DNA content in cells (cells [1]) | inhibition of binding of PIP3 to the PH domain of PDK1 (PDK1 PH domain) | viability of U87MG cells (U87MG cells) | pIC50 [2] | cell death in combination with glucose/glutamine deprivation (cells [3]) | killing of U87MG cells compared with LY294002 (U87MG cells) |
| --- | --- | --- | --- | --- | --- | --- | --- |
| O=C1NC(=S)S/C1=C\c1cc(O)c([N+](=O)[O-])cc1Cc1ccccc1 [PIT-2] | suppressed the plasma membrane translocation | significant increase | inhibited binding | reduce viability | 4.50 | dramatic induction of cell death |  |
| O=C(NC(=S)Nc1cc([N+](=O)[O-])cc(Cl)c1O)c1ccccc1 [PIT-1] | suppressed the plasma membrane translocation | significant increase | inhibited binding | reduce viability | 4.55 | dramatic induction of cell death | more pronounced than that by the PI3K inhibitor LY294002 |
